Measurements as given in ChEMBL document CHEMBL3991601, “The target landscape of clinical kinase drugs” (Science, 2017).
The source made the active and inactive calls. Rule as the data show it, for most assays here: actives have a measured Kd and inactives only a lower limit.

Columns and labels:
[1] = molecular target: Calcium/calmodulin-dependent protein kinase type II subunit delta (Homo sapiens, UniProt Q13557)
[2] = molecular target: Calcium/calmodulin-dependent protein kinase kinase 2 (Homo sapiens, UniProt Q96RR4)
Sequence of Calcium/calmodulin-dependent protein kinase kinase 2 (Q96RR4 whole entry): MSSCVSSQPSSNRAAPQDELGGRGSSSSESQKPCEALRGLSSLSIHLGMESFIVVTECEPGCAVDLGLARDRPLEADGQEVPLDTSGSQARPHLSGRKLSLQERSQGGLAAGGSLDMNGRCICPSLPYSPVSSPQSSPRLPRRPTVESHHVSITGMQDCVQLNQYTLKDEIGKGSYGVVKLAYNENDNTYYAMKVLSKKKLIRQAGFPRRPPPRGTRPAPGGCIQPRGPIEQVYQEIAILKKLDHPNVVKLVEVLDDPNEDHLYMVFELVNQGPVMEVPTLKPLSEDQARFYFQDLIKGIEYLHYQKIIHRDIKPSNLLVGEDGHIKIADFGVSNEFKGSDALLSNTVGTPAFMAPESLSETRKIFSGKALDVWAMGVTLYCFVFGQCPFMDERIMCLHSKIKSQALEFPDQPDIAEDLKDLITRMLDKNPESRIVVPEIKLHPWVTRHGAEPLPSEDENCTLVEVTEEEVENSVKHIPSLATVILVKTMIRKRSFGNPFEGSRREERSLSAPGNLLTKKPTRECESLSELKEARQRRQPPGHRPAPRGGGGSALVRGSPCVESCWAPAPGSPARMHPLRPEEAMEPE

[3] = molecular target: T1, Ephrin type-B receptor 3 (Homo sapiens, UniProt P54753)
T1 sequence (P54753 whole entry): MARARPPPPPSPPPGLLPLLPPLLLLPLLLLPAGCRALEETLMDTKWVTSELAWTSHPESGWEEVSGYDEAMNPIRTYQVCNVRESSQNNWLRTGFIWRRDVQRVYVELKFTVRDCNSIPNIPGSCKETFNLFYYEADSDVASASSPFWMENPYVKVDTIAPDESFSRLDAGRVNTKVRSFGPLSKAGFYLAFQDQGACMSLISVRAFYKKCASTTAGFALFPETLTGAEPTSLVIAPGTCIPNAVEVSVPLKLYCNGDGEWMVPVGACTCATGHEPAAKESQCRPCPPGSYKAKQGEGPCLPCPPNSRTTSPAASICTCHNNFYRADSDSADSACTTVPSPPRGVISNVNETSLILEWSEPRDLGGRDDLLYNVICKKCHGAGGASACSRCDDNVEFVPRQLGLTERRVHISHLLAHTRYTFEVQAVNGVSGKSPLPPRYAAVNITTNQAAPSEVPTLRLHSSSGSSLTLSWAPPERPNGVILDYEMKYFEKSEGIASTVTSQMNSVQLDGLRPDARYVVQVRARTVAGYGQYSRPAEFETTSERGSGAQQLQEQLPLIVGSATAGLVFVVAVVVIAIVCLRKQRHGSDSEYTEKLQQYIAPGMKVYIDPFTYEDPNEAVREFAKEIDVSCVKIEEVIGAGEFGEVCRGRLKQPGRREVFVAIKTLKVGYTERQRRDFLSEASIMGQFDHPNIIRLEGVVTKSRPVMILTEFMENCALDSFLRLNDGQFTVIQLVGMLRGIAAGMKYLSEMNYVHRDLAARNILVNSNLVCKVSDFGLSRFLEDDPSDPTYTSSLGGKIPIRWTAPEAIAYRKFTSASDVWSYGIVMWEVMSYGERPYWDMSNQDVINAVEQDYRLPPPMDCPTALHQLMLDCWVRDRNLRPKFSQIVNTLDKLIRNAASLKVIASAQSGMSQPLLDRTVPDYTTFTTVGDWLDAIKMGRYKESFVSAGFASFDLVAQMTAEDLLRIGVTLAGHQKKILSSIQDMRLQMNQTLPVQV

[4] = molecular target: T2, Cyclin-G-associated kinase (Homo sapiens, UniProt O14976)
T2 sequence (O14976 whole entry): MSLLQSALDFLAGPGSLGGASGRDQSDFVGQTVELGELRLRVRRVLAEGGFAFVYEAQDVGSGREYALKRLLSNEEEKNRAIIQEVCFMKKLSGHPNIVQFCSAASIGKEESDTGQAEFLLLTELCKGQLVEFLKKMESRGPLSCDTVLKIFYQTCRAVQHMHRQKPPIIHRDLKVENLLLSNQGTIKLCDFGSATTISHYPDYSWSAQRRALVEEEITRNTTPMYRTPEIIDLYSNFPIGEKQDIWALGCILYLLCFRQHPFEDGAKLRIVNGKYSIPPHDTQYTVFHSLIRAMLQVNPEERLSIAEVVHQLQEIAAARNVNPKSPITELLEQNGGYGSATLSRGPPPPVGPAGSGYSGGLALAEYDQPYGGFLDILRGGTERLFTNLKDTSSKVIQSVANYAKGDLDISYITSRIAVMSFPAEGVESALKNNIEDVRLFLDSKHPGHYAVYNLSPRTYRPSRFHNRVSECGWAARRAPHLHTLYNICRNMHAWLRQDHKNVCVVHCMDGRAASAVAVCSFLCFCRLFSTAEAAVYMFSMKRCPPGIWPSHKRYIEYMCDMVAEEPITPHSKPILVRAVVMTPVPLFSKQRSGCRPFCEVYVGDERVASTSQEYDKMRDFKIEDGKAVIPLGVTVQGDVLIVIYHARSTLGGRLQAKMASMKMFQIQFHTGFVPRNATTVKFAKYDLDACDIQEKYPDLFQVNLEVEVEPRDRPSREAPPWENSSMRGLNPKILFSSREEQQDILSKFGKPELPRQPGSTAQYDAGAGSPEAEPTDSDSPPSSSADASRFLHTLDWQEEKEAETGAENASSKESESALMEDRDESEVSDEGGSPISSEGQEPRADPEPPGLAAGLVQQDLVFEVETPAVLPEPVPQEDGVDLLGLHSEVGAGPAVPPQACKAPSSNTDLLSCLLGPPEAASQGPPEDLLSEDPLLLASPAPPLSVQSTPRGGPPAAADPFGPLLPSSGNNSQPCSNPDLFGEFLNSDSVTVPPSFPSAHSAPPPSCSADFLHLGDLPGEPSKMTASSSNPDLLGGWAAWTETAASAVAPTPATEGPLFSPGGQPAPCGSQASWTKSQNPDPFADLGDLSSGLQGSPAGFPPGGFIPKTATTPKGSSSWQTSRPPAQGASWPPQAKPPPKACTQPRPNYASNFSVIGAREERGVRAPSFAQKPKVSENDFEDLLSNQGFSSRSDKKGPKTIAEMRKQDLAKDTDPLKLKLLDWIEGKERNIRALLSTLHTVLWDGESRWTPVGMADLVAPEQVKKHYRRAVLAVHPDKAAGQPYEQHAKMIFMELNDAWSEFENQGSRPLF

[5] = molecular target: LIM domain kinase 2 (Homo sapiens, UniProt P53671)
Sequence of LIM domain kinase 2 (P53671 whole entry, the tested form may be a part): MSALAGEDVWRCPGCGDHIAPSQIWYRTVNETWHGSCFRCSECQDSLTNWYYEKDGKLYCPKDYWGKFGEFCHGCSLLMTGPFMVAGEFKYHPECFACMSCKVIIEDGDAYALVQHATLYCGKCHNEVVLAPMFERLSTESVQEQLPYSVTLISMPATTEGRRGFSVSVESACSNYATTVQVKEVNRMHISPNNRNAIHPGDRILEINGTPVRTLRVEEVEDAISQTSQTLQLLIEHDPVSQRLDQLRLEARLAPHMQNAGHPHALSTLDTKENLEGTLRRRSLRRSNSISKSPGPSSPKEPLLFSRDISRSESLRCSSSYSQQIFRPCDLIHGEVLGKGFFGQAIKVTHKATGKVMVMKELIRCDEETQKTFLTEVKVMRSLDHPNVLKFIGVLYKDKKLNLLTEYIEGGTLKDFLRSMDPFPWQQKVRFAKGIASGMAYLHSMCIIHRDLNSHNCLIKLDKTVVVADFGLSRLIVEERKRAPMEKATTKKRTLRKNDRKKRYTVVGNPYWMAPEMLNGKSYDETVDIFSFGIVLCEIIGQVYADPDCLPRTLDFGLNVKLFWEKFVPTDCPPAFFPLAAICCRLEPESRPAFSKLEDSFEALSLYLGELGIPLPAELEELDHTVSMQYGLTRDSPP

[6] = molecular target: Maternal embryonic leucine zipper kinase (Homo sapiens, UniProt Q14680)
Sequence of Maternal embryonic leucine zipper kinase (Q14680 whole entry): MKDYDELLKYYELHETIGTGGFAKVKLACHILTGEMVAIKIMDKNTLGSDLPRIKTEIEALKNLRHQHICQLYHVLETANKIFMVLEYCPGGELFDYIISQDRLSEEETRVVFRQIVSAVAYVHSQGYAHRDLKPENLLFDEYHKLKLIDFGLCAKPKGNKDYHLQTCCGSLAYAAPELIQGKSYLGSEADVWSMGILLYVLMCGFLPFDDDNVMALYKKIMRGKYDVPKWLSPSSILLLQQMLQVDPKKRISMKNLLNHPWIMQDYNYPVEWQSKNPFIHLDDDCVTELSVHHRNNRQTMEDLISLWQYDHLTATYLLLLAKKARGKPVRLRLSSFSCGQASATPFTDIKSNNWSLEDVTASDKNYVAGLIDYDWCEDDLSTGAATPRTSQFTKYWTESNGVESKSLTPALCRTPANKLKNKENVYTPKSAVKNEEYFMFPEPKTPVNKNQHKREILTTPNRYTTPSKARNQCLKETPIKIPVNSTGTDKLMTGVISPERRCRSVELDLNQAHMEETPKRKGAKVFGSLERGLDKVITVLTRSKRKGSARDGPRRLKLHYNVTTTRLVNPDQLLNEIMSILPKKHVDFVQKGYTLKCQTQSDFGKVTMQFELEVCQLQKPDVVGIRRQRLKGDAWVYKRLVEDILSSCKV

[7] = molecular target: Tyrosine-protein kinase Yes (Homo sapiens, UniProt P07947)
Sequence of Tyrosine-protein kinase Yes (P07947 whole entry): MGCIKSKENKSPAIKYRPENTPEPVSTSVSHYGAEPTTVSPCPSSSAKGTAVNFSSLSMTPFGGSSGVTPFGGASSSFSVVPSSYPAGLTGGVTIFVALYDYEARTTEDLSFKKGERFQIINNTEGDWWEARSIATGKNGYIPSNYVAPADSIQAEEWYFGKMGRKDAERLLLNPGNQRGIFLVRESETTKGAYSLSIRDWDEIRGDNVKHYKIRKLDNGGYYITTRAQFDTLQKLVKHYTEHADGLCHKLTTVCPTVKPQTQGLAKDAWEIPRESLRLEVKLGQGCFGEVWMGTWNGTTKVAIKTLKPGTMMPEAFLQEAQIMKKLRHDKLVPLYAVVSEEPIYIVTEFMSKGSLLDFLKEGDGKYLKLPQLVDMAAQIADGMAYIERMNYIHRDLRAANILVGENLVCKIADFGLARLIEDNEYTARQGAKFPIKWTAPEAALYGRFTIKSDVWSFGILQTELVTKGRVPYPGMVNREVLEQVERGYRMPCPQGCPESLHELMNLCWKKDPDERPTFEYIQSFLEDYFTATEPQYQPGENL
Also: in the data inactive means no Kd found up to 30 µM.

Sequence of Calcium/calmodulin-dependent protein kinase type II subunit delta (Q13557 whole entry): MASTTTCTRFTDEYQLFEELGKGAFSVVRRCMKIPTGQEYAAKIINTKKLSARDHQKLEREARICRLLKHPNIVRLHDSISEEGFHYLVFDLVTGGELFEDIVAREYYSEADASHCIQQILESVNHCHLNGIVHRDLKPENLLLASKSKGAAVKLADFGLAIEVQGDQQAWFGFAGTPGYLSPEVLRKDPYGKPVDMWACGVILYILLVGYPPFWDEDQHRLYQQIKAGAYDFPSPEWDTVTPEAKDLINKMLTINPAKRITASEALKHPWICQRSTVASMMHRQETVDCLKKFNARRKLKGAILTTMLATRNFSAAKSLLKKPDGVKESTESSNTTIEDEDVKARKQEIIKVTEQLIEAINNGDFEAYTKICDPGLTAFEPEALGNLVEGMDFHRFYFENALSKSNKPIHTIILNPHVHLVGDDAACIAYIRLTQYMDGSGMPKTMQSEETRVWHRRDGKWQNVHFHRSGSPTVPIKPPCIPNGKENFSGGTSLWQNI

SMILES	Kd [1]	Kd [2]	Kd [3]	Kd [4]	Kd [5]	Kd [6]	Kd [7]
COc1cc2nccc(Oc3ccc(NC(=O)C4(C(=O)Nc5ccc(F)cc5)CC4)cc3)c2cc1OC [CABOZANTINIB]	> 30 µM (inactive)	> 30 µM (inactive)	> 30 µM (inactive)	> 30 µM (inactive)	> 30 µM (inactive)	> 30 µM (inactive)	> 30 µM (inactive)
CNC(=O)c1cccc(-c2ccc3c(N4CCOC[C@@H]4C)nc(N4CCOC[C@@H]4C)nc3n2)c1 [VISTUSERTIB]	> 30 µM (inactive)	> 30 µM (inactive)	> 30 µM (inactive)	> 30 µM (inactive)	> 30 µM (inactive)	> 30 µM (inactive)	> 30 µM (inactive)
S=C(NCc1ccc2c(c1)OCO2)N1CCN(c2ncnc3c2oc2ccccc23)CC1 [AMUVATINIB]	> 30 µM (inactive)	> 30 µM (inactive)	> 30 µM (inactive)	> 30 µM (inactive)	> 30 µM (inactive)	> 30 µM (inactive)	> 30 µM (inactive)
COc1ccc(-c2ccc3ncc4c(c3c2)n(-c2ccc(N3CCNCC3)c(C(F)(F)F)c2)c(=O)n4C)cn1 [BGT-226 FREE BASE]	> 30 µM (inactive)	> 30 µM (inactive)	> 30 µM (inactive)	> 30 µM (inactive)	> 30 µM (inactive)	4.08 µM (active)	> 30 µM (inactive)
O=S(=O)(c1cccc2cnccc12)N1CCCNCC1 [FASUDIL]	> 30 µM (inactive)	> 30 µM (inactive)	> 30 µM (inactive)	> 30 µM (inactive)	> 30 µM (inactive)	1.92 µM (active)	> 30 µM (inactive)
C=CCN(/C=C1/C(=O)O[C@H](COC)[C@@]2(C)C1=C(O)C(=O)C1=C2[C@H](OC(C)=O)C[C@]2(C)C(=O)CC[C@@H]12)CC=C [SONOLISIB]	> 30 µM (inactive)	> 30 µM (inactive)	> 30 µM (inactive)	> 30 µM (inactive)	> 30 µM (inactive)	> 30 µM (inactive)	> 30 µM (inactive)
C=CC(=O)Nc1cc(Nc2nccc(-c3cn(C)c4ccccc34)n2)c(OC)cc1N(C)CCN(C)C [OSIMERTINIB]	> 30 µM (inactive)	> 30 µM (inactive)	> 30 µM (inactive)	> 30 µM (inactive)	> 30 µM (inactive)	> 30 µM (inactive)	> 30 µM (inactive)
Cc1c(Cn2c(C)nc3c(C(=O)O)cc(N4CCOCC4)cc32)cccc1C(F)(F)F [GSK-2636771]	> 30 µM (inactive)	> 30 µM (inactive)	> 30 µM (inactive)	> 30 µM (inactive)	> 30 µM (inactive)	> 30 µM (inactive)	> 30 µM (inactive)
O=C(O)c1ccc2c(c1)nc(Nc1cccc(Cl)c1)c1ccncc12 [SILMITASERTIB]	> 30 µM (inactive)	> 30 µM (inactive)	> 30 µM (inactive)	5.16 µM (active)	> 30 µM (inactive)	> 30 µM (inactive)	> 30 µM (inactive)
COc1cc2ncnc(Nc3ccc(F)c(Cl)c3)c2cc1NC(=O)/C=C/CN1CCCCC1 [DACOMITINIB ANHYDROUS]	> 30 µM (inactive)	> 30 µM (inactive)	> 30 µM (inactive)	0.168 µM (active)	> 30 µM (inactive)	> 30 µM (inactive)	> 30 µM (inactive)
O=C(NC[C@H](O)CO)c1ccncc1Nc1ccc(I)cc1F [PIMASERTIB]	> 30 µM (inactive)	> 30 µM (inactive)	> 30 µM (inactive)	> 30 µM (inactive)	> 30 µM (inactive)	> 30 µM (inactive)	> 30 µM (inactive)
C#Cc1cccc(Nc2ncnc3cc4c(cc23)OCCOCCOCCO4)c1 [ICOTINIB]	> 30 µM (inactive)	> 30 µM (inactive)	> 30 µM (inactive)	0.725 µM (active)	> 30 µM (inactive)	> 30 µM (inactive)	> 30 µM (inactive)

Continued, values first:

Kd [1]	Kd [2]	Kd [3]	Kd [4]	Kd [5]	Kd [6]	Kd [7]	SMILES
> 30 µM (inactive)	> 30 µM (inactive)	> 30 µM (inactive)	0.12 µM (active)	> 30 µM (inactive)	> 30 µM (inactive)	> 30 µM (inactive)	COc1cc2ncnc3c2cc1OCCCCCN(C)Cc1ccc(Br)cc1N3 [JNJ-26483327]
> 30 µM (inactive)	> 30 µM (inactive)	> 30 µM (inactive)	> 30 µM (inactive)	> 30 µM (inactive)	> 30 µM (inactive)	> 30 µM (inactive)	O=C(Nc1ccc(OC(F)(F)F)cc1)c1sccc1NCc1ccnc2ccccc12 [OSI-930]
> 30 µM (inactive)	> 30 µM (inactive)	> 30 µM (inactive)	> 30 µM (inactive)	> 30 µM (inactive)	> 30 µM (inactive)	> 30 µM (inactive)	COc1ccc2c(OCc3nnc4ccc(-c5ccccc5)nn34)ccnc2c1 [AMG-208]
